Converted amounts (≈) assume the structure as drawn. Where two headings read alike, the source gives them in different places.
Tests used:
Acinetobacter baumannii = test: In vitro antibacterial activity (growth inhibition, OD600), A. baumannii; type: cell-based; details: for MIC: read-out: Ab MIC95
[1] = test system: Pseudomonas aeruginosa PA14; test: In vitro antibacterial activity (growth inhibition, OD600), P. aeruginosa; type: cell-based; details: PA14, 50 μM compound, Table 1 and main text, read-out: PA14 inh. at 50 μM
E. coli K12 = test: In vitro antibacterial activity (growth inhibition, OD600), E. coli wild-type; type: cell-based; details: Escherichia coli
Escherichia coli ∆tolC = test: microbe, parasite or virus in culture; type: cell-based; details: Escherichia coli
[2] = test system: Mycobacterium tuberculosis (Mtb) strain H37Rv; test: microbe, parasite or virus in culture; type: cell-based; details: 168 h, 7 days, footnote b: not active at maximum solubility, read-out: MtbH37Rv MIC90
in vitro = details: human, HepG2 CC50, 48 h, MTT
[3] = test system: Staphylococcus aureus ssp. Aureus; test: In vitro antibacterial activity (MIC), S. aureus; type: cell-based; details: Staphylococcus aureus, read-out: Sa MIC95
[4] = test system: Streptococcus pneumoniae (DSM20566); test: In vitro antibacterial activity (MIC), S. pneumoniae; type: cell-based; details: Streptococcus pneumoniae, DSM20566, read-out: Sp MIC95
[5] = test system: Plasmodium falciparum NF54; test: P. falciparum in vitro drug sensitivity assay on asexual blood stage parasites ([3H]-hypoxanthine incorporation); type: cell-based; details: Plasmodium falciparum, NF54, Table 1 and main text; read-out: PfNF54 IC50
[6] = In vitro cytotoxicity by XTT assay; type: cell-based; details: human, human monocyte-derived macrophages (hMdM)
[7] = Table S2, with standard deviation

Row | SMILES | inhibition at 50 µM (Acinetobacter baumannii; 50 μM compound, Table 1 and main text, read-out: Ab inh. at 50 μM) [%] | inhibition at 50 µM [1] [%] | inhibition at 50 µM (E. coli K12; K12, 50 μM compound, Table 1 and main text, read-out: EcK12 inh. at 50 μM) [%] | MIC (Escherichia coli ∆tolC; read-out: EcΔtolC MIC95) [µM] | MIC (Escherichia coli ∆tolC; read-out: Ec∆tolC MIC95 (µM)) [µM] | MIC90 [2] [µM] | CC50 (in vitro) [µM] | MIC ([3]; Table 1 and main text) [µM] | MIC [3, 7] [µM] | MIC ([4]; Table 1 and main text) [µM] | MIC [4, 7] [µM] | IC50 [5] [µM] | CC90 at 24 h [6] [µM] | MIC (Acinetobacter baumannii; Table S1, printed inside the inhibition column, with standard deviation, unit from Table 1 footnote) [µM] | MIC (Acinetobacter baumannii; printed inside the Ab inhibition column, Table 1 and main text) [µM] | MIC (E. coli K12; K12, Table S1, printed inside the inhibition column, with standard deviation, unit from Table 1 footnote, read-out: EcK12 MIC95) [µM]
1 | N=C(N)N1CCN(c2ccc(NC(=O)c3cc(-c4cc(Cl)ccc4O)[nH]n3)cc2C(F)(F)F)CC1 [Compound 12G, N-(4-(4-Carbamimidoylpiperazin-1-yl)-3-(trifluoromethyl)phenyl)-5-(5-chloro-2-hydroxyphenyl)-1H-pyrazole-3-carboxamide] | 33 | < 10 | 51 | 2.8 (≈ 1.42 µg/mL) | 2.8 ± 0.3 (≈ 1.42 µg/mL) | 4 (≈ 2.03 µg/mL) | 30 | 2.4 (≈ 1.22 µg/mL) | 2.4 ± 0.3 (≈ 1.22 µg/mL) | 31 (≈ 15.7 µg/mL) | 31 ± 6 (≈ 15.7 µg/mL) | 0.2 | 32 | – | – | –
2 | N=C(N)N1CCN(c2cc(NC(=O)c3cc(-c4cc(Cl)ccc4O)[nH]n3)cc(C(F)(F)F)c2)CC1 [Compound 11G, N-(3-(4-Carbamimidoylpiperazin-1-yl)-5-(trifluoromethyl)phenyl)-5-(5-chloro-2-hydroxyphenyl)-1H-pyrazole-3-carboxamide] | – | 25 | – | 4 (≈ 2.03 µg/mL) | 4 ± 1 (≈ 2.03 µg/mL) | 8 (≈ 4.06 µg/mL) | > 25 | 3.2 (≈ 1.63 µg/mL) | 3.2 ± 0.1 (≈ 1.63 µg/mL) | 28 (≈ 14.2 µg/mL) | 28 ± 15 (≈ 14.2 µg/mL) | 0.5 | > 32 | 17 ± 5 (≈ 8.63 µg/mL) | 17 (≈ 8.63 µg/mL) | 48 ± 5 (≈ 24.4 µg/mL)

Source: paper PMC11938010, “Positive Charge in an Antimalarial Compound Unlocks Broad-Spectrum Antibacterial Activity” (JACS Au, 2025)
